# Assay results: US20150011566A1, “N-PHENYLPIPERAZINE DERIVATIVES THAT ARE ANTAGONISTS OF A1A, A1D ADRENOCEPTORS AND 5-HT1A RECEPTORS FOR THE TREATMENT OF BENIGN PROSTATE HYPERPLASIA, PHARMACEUTICAL COMPOSITIONS CONTAINING THE SAME” (UNIVERSIDADE FEDERAL DO RIO DE JANEIRO-UFRJ, priority 2012, published 2015)
# Where two headings read alike, the source gives them in different places.
# Columns and labels:
# [1] = target: T1, α1B adrenoceptors (Rattus norvegicus, UniProt P15823); experiment: Binding of [3H]-prazosin to α1B adrenoceptors (rat liver membranes); settings: for affinity range for α1B adrenoceptor: in words
# T1 construct: from tissue; host or cells: rat liver membranes
# T1 sequence (P15823 1-515): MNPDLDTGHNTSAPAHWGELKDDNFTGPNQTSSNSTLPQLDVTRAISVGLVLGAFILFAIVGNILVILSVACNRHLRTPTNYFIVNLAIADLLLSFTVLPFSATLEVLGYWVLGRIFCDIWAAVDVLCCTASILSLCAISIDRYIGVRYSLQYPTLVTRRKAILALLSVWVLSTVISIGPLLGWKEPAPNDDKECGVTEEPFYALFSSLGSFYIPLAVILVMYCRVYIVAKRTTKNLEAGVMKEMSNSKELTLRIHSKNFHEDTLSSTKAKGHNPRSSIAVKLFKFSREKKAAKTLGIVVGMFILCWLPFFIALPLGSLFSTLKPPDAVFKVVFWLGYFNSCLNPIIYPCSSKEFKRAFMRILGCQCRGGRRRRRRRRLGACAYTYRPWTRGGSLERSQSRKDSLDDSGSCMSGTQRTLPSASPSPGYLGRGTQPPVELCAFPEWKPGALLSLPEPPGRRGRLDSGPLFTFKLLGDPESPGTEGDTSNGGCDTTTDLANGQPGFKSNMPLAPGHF
# Protocol: Following the protocol described previously in the literature membrane preparations from rat liver homogenates were obtained. Such membrane preparations are enriched in the adrenoceptor subtype α1B. The tissues obtained as described above (4 Rat livers corresponding to ˜30 g) were thawed and homogenized perforated similarly performed for rabbit liver. The homogenate obtained was filtered through four layers of gauze and then subjected to centrifugation 5,000×g for 20 minutes at 4° C., yielding a supernatant which was subsequently ultracentrifuged at 100,000×g for 60 minutes at 4° C., obtaining a pellet. This pellet was resuspended in buffer free of NaCl and subjected to a further […] under the same conditions.
# Binding assays were standardized for α1B adrenoceptors in the same way adrenoceptor binding assays for α1A according to the literature, i.e. saturation and competition assays were performed on membrane preparations from rat liver, in this case using […] protein per tube contained […] suspension, in addition to various concentrations of LDT's (10^−9-10^−6 M).
# [2] = target: T2, 5-HT1A receptors (Rattus norvegicus, UniProt P19327); experiment: Binding of [3H]-8-OH-DPAT to 5-HT1A receptors (rat hippocampus membranes)
# T2 construct: Intrinsic Activity at Native 5-HT1A Receptors; from tissue; host or cells: rat hippocampus membranes
# T2 sequence (P19327 1-422): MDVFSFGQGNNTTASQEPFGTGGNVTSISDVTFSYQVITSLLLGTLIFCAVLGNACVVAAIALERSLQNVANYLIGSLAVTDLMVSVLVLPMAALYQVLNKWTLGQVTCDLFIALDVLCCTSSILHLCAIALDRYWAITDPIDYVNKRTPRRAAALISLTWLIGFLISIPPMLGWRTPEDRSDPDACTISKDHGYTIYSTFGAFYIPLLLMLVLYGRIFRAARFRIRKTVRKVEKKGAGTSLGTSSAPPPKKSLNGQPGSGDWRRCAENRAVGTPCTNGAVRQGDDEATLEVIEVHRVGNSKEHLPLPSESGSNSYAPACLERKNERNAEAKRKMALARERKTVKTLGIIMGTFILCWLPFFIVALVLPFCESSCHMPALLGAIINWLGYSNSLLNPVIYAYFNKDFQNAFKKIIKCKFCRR
# Protocol: Membrane preparations of rat hippocampus according to previously described by HALL et al (1985) and PEROUTKA (1986) were performed. The homogenization and centrifugation steps were performed identically to that described above for receptors α2A and 5-HT2A receptors.
# The binding assays for the 5-HT1A receptors were performed as described previously in the literature and previously standardized in the laboratory through saturation experiments. […] (solvent for dilution of LDT's) for the determination of total binding, or 50 μL non-radioative serotonin at 10 μM to determine the non-specific binding (final volume of 500 μL). Assays were performed in triplicate. […] Assays were performed in triplicate.
# (§1) After the incubation period, the reaction was stopped by adding 4 ml of ice-cold solution containing 5 mM Tris (pH 7.4), followed by vacuum filtration on glass fiber filter (GMF 3, Filtrak®) previously soaked with solution 0.5% polyethylenoimine. The filters were washed three times with 4 mL of ice-cold solution containing 5 mM Tris (pH 7.4) under vacuum to remove all free radioligand. Then the filters were dried and placed in vials containing 5 ml scintillation fluid (composition: 4% PPO, 0.1% POPOP w/p in toluene). The radioactivity retained on the filters was then determined in a liquid scintillation counter (Packard Tri-Carb 1600 TR). […] For these receptors were also determined the LC50 and Ki parameters.
# [3] = target: T3, 5-HT2A receptors (Rattus norvegicus, UniProt P14842); experiment: [3H]-ketanserin binding to 5-HT2A receptors (rat cortex membranes)
# T3 construct: from tissue; host or cells: rat cortex membranes
# Protocol: Membrane preparations of rat cortex as described previously in the literature were performed. The organs were homogenized in a Potter with the aid of a motor unit (Fisatom) and Teflon piston in the proportion of 20 parts of 50 mM Tris HCl (pH 7.4 at 4° C.) for one piece of material, three times for 30 seconds each time, at intervals the solution was allowed to stand on ice for 1 minute.
# Then it was performed a centrifugation at 900×g for 10 minutes at 4° C. It was obtained a […] which was resuspended in solution cold 50 mM Tris-HCl (pH 7.4) and the same procedure was performed once more. The supernatant was then centrifuged at 48,000×g for 10 minutes at 4° C. yielding a pellet which was resuspended at a ratio of 20 parts of 50 mM Tris HCl (pH 7.4 at 4° C.) for one piece of material, and incubated at 37° C. for 10 minutes in order to remove the endogenous neurotransmitters. Finally, centrifugation two times more at 48,000×g was performed for 10 minutes at 4° C., and then the final pellet was resuspended in a solution of 50 mM Tris-HCl (pH 7.4).
# The binding assays for 5-HT2A receptors were performed as described in the literature. […] (solvent for dilution of the LDT's), to determine the total binding, or 50 μL non-radioactive ketanserin at 10 μM for the determination of nonspecific binding (final volume of 500 μL). Assays were performed in triplicate.
# as §1, with “polyethylenoimine” for “polyethylenoimine.”, “(4%” for “(composition: 4%”, “w/v” for “w/p”, “To” for “For”, “CI50” for “the LC50”
# [4] = Table 5, Cheng-Prusoff, read-out: α1B Ki
# [5] = Table 8, Cheng-Prusoff, read-out: Ki
# [6] = Table 9, agonist radioligand [3H] 8-OH-DPAT, read-out: Ki high
# [7] = Table 11, Cheng-Prusoff, read-out: Ki
# [8] = Table 4, Cheng-Prusoff, read-out: Ki
# [9] = Table 4, read-out: log CI50 ± EPM (converted)
# [10] = Ki high (nM), Table 13, agonist radioligand [3H] 8-OH-DPAT
# [11] = Table 10, Cheng-Prusoff, read-out: Ki
# [12] = Table 10, read-out: log CI50 ± EPM (converted)
# T3 sequence (P14842 whole entry): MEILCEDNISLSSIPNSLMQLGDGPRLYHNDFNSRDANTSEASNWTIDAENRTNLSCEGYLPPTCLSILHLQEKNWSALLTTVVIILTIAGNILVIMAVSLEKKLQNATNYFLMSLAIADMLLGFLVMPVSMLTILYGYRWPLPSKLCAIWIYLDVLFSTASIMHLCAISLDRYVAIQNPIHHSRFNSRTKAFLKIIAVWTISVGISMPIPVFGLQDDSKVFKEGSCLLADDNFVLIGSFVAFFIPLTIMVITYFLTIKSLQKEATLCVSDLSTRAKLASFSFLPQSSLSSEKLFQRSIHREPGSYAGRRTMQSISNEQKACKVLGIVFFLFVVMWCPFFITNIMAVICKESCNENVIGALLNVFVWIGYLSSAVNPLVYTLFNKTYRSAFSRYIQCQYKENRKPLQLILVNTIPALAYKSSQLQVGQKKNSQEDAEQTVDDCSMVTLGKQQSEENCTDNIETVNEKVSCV
SMILES,IC50 [2] [nM],α1B log IC50 (M) ([1]; Table 5),"Ki [1, 4] [nM]",log IC50 (M) ([2]; Table 8),"Ki [2, 5] [M]",log IC50 (M) ([3]; Table 11),"Ki [3, 7] [nM]",other results
COc1ccccc1N1CCN(CCc2ccccc2)CC1 [LDT 2],3.02,,,,,,,"IC50 [1]: 63.1 nM; Ki [1]: 48.7 nM; Ki ([2]; KI (M), Table 7, Cheng-Prusoff): 1.24e-09 M; IC50 [3]: 74.1 nM; Ki [3]: 47.4 nM"
COc1ccc(CCN2CCN(c3ccccc3OC)CC2)cc1 [LDT 4],2.4,,,,,,,"IC50 [1]: 30.2 nM; Ki [1]: 23.3 nM; Ki ([2]; KI (M), Table 7, Cheng-Prusoff): 9.88e-10 M; IC50 [3]: 69.2 nM; Ki [3]: 44.2 nM"
CCCCCCN1CCN(c2ccccc2OC)CC1 [LDT 66],,−6.51 ± 0.18,221,−7.93 ± 0.20a M,5e-09,−5.57 ± 0.16b M,1720,"Ki [2, 6]: 5e-09 M"
COc1ccc(CCN2CCN(c3ccccc3OC)CC2)cc1OC [LDT 5],6.17,,,,,,,"Ki [1, 8]: 12.2 nM; IC50 [1, 9]: 15.8 nM; Ki ([2]; KI (M), Table 7, Cheng-Prusoff): 2.54e-09 M; Ki [2, 10]: 3.89e-09 M; IC50 [3]: 389 nM; Ki [3]: 248 nM"
CCCCCCCCN1CCN(c2ccccc2OC)CC1 [LDT 68],,−6.69 ± 0.10,173,−7.70 ± 0.30b M,9e-09,−5.64 ± 0.08b M,1470,"Ki [2, 6]: 9e-09 M"
CCCCCN1CCN(c2ccccc2OC)CC1 [LDT 65],38,,,,,,,"IC50 [1]: 331 nM; Ki [1]: 277 nM; Ki ([2]; Ki (nM), Table 8, Cheng-Prusoff): 1.8e-08 M; Ki ([2]; Ki high (nM), Table 9, agonist radioligand [3H] 8-OH-DPAT): 1.8e-08 M; IC50 [3]: 4570 nM; Ki [3]: 2930 nM"
CCCCN1CCN(c2ccccc2OC)CC1 [LDT 64],,−6.33 ± 0.16,393,−6.72 ± 0.19 M,8.4e-08,−5.06 ± 0.09 M,5580,
CCOc1ccccc1N1CCN(CCc2ccc(OC)c(OC)c2)CC1 [LDT 245],9.33,,,,,,,"Ki ([2]; KI (M), Table 7, Cheng-Prusoff): 3.8e-09 M"
CCN1CCN(c2ccccc2)CC1 [LDT 39],,−6.29 ± 0.10,425,−5.93 ± 0.13 M,5.2e-07,−5.16 ± 0.16 M,4440,
CCCCCCCN1CCN(c2ccccc2OC)CC1 [LDT 67],,−6.87 ± 0.10,113,−7.42 ± 0.19b M,1.8e-08,−5.53 ± 0.13b M,1890,"Ki [2, 6]: 1.8e-08 M"
CCN1CCN(c2ccccc2OC)CC1 [LDT 62],,−6.27 ± 0.05,448,−6.47 ± 0.10 M,1.47e-07,−5.00 ± 0.06 M,6410,
CCOc1ccccc1N1CCN(CCc2ccc3c(c2)OCO3)CC1 [LDT 8],0.0575,,,,,,,"IC50 [1]: 11.7 nM; Ki [1]: 9.07 nM; affinity range for α1B adrenoceptor [1]: nanomolar range; Ki [2, 10]: 1.8e-11 M; Ki ([2]; Ki, text b157): 2.37e-11 M; Ki [3, 11]: 248 nM; IC50 [3, 12]: 389 nM"
CCN1CCN(c2ccccc2O)CC1 [LDT 70],,−6.07 ± 0.10,715,−6.15 ± 0.08 M,3.16e-07,−4.20 ± 0.03a M,40400,
CCOc1ccccc1N1CCN(CC)CC1 [LDT 69],,−6.53 ± 0.11,185,−6.86 ± 0.30 M,6.2e-08,−5.02 ± 0.06 M,6120,
COc1ccccc1N1CCN(CCC2CCCCC2)CC1 [LDT 6],,,,,,,,"Ki [1, 8]: 154 nM; IC50 [1, 9]: 200 nM; affinity range for α1B adrenoceptor [1]: range μM; Ki ([2]; Table 7, Cheng-Prusoff, read-out: KI): 2.42e-10 M; IC50 ([2]; Table 7, read-out: log CI50 ± EPM (converted)): 0.589 nM; Ki [3, 11]: 376 nM; IC50 [3, 12]: 589 nM"
COc1cccc(CCN2CCN(c3ccccc3OC)CC2)c1 [LDT 3],2.75,,,,,,,"IC50 [1]: 95.5 nM; Ki [1]: 73.7 nM; Ki ([2]; KI (M), Table 7, Cheng-Prusoff): 1.13e-09 M; Ki [2, 10]: 1.79e-09 M; IC50 [3]: 70.8 nM; Ki [3]: 45.2 nM"
CCCN1CCN(c2ccccc2OC)CC1 [LDT 63],,−6.22 ± 0.05,511,−6.37 ± 0.03 M,1.91e-07,−4.86 ± 0.13 M,8850,
